Laboratory results taken from article PMC10388327, “Dual Piperidine-Based Histamine H3 and Sigma-1 Receptor Ligands in the Treatment of Nociceptive and Neuropathic Pain” (Journal of Medicinal Chemistry, 2023).
Counter-ions that a name gives are not always drawn. Like-named read-outs stand apart in the source and are kept apart here.

Columns and labels:
[1] = pKa determination by potentiometric titration; type: physicochemical; conditions: for pKa: aqueous solution, experimental, potentiometric titration
Experimental: In addition, we tested the amino alcohol fragments of these compounds to carefully monitor the influence of individual protonated nitrogen atoms on the obtained pKa values (Figure 4). […] Based on a previously modified potentiometric procedure,[27],[28] a series of titrations were performed, and the pKa values were determined using the Kostrowicki and Liwo algorithm.[29],[30] […] That explains the surprising result of free base crystallization attempts where iodide salt was obtained instead of the neutral form. On the other hand, in the same environment, KSK94 exists in two forms: the monoprotonated form [HL^+] (20.56%) and the free ligand [L] (77.72%, Figure 5). […] KSK68 can be characterized as a basic ligand with pKa1 = 4.9 (pyridine N) and pKa2 = 8.4 (piperidine N). The pKa values are consistent with those determined by the same procedure for the corresponding amino alcohol 3-(4-(pyridin-4-yl)piperidin-1-yl)propan-1-ol (Figure 4). […] A similarly low pKa2 value for the N7 piperazine nitrogen atom was also determined for the corresponding amino alcohol 3-(4-(pyridin-4-yl)piperazin-1-yl)propan-1-ol (Figure 4), which is in agreement with the value obtained for 1-phenyl-4-methyl piperazine reported in the literature.[31] […] The lowest value was determined for 4-nitrophenyl, and the highest was for 2-methylphenyl derivatives.[32]
The potentiometric microtitration was performed in a thermostated 20 mL cell using a CerkoLab microtitration unit fitted with a pH electrode (Hydromet ERH-13-6). The electrode was calibrated with the use of buffer solutions: pH = 4.00, 7.00, and 10.00. Titrant T (0.1 M KOH) was standardized according to the general analytical procedure and protected from carbon dioxide. Double distilled water with a conductivity of about 0.18 mS/cm was used to prepare all aqueous solutions. DMSO (HPLC grade, 99.5%) was supplied by Sigma Aldrich. The concentration of the titrant solution (D) was 0.0025–0.005 M. The solubilization procedure was follows: The appropriate amount of KSK compound was dissolved in 1 mL 0.1 M HCl and 1 mL DMSO to prepare a 25 mL stock solution. The developed solubilization system can be recommended for poorly soluble derivatives. The analytical procedure was a follows: volume V0 = 4.5 mL of titrant D was titrated with 0.1 M titrant T using the CerkoLab System equipped with a 5 mL syringe pump.

[2] = molecular target: T1, sigma-2 receptor (σ2R) (Rattus norvegicus, UniProt Q5U3Y7); experiment: σ2R radioligand binding ([3H]DTG); conditions: read-out: σ2R Ki [nM] x̄ [CI 95%]; mean [CI 95%]
T1 construct: The thawed membrane preparation of rat liver was incubated; from tissue; host or cells: Sprague-Dawley rat liver membranes
T1 sequence (Q5U3Y7 1-176): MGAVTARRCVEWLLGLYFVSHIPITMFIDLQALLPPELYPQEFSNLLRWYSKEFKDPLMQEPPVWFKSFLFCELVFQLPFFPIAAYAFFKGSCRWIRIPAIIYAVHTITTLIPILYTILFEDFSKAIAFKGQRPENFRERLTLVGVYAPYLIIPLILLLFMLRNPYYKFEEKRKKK

[3] = molecular target: T2, human recombinant histamine H3R (Homo sapiens, UniProt Q9Y5N1); experiment: hH3R radioligand binding ([3H]Nα-methylhistamine depletion assay); conditions: read-out: hH3R Ki [nM] x̄ [CI 95%]; mean [CI 95%]; HEK-293 cells
T2 construct: expressed in transfected cells
T2 sequence (Q9Y5N1 whole entry): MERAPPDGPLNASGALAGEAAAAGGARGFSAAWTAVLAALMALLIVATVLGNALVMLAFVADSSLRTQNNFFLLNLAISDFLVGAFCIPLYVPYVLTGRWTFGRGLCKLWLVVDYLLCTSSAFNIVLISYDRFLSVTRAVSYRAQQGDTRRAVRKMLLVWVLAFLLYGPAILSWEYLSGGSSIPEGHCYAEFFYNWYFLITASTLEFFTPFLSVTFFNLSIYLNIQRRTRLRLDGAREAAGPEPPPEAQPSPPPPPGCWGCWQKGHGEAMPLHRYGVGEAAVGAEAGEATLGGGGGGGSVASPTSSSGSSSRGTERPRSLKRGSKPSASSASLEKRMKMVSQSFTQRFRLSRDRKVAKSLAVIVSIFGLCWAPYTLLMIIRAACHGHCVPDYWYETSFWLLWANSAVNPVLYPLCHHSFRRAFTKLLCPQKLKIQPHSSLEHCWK

[4] = test system: sigma-1 receptor (σ1R); experiment: σ1R radioligand binding ([3H](+)-pentazocine); design: species or system guinea pig; conditions: ratio of σ2R Ki to σ1R Ki
[5] = molecular target: T3, sigma-1 receptor (σ1R) (Cavia porcellus, UniProt Q60492); experiment: σ1R radioligand binding ([3H](+)-pentazocine); design: species or system guinea pig; conditions: read-out: σ1R Ki [nM] x̄ [CI 95%]; mean [CI 95%]
T3 construct: The thawed membrane preparation of the guinea pig brain cortex was incubated; from tissue; host or cells: male Dunkin-Hartley guinea pig brain cortex membranes
T3 sequence (Q60492 whole entry): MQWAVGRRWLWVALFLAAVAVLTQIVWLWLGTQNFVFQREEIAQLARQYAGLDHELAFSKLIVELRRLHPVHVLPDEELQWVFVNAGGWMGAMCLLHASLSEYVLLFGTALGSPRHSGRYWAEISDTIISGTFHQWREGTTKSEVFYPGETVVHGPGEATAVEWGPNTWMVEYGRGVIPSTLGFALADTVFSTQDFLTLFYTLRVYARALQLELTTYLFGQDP

[6] = test system: mice; experiment: loperamide-induced antinociception (paw pressure, struggle response latency); type: in vivo, Female CD1 mice; conditions: for reversal of potentiation of loperamide-induced antinociception by S1RA and 12: PRE-084 75 μg i.pl., naloxone-methiodide 2 mg/kg s.c.
[7] = parallel artificial membrane permeability assay (PAMPA); type: in vitro ADME; conditions: 100 μM in PBS pH 7.4, RT, read-out: Pe (permeability coefficient)
[8] = Figure 5, species distribution from titration curves
[9] = aqueous solution at physiological pH

Structure (SMILES) | Ki [2] | Ki [3] | σ2/σ1 ratio [4] | Ki [5] | also measured
OCCCN1CCN(c2ccncc2)CC1 [3-(4-(pyridin-4-yl)piperazin-1-yl)propan-1-ol, reference compound] | – | – | – | – | pKa ([1]; read-out: pKa1): 6.1; pKa ([1]; read-out: pKa2): 1; pKa ([1]; read-out: pKa3): 8.82
OCCCN1CCC(c2ccncc2)CC1 [3-(4-(pyridin-4-yl)piperidin-1-yl)propan-1-ol, reference compound] | – | – | – | – | pKa ([1]; read-out: pKa1): 4.91; pKa ([1]; read-out: pKa2): 8.84
OCCCN1CCNCC1 [3-(piperazin-1-yl)propan-1-ol, reference compound] | – | – | – | – | pKa ([1]; read-out: pKa1): 4.52; pKa ([1]; read-out: pKa2): 9.14
OCCCN1CCCCC1 [3-(piperidin-1-yl)propan-1-ol, reference compound] | – | – | – | – | pKa ([1]; read-out: pKa): 9.73
CC1CCCN(CCCOc2ccc(-c3ccccc3)cc2)C1 (stereo not drawn) [Compound 1, 1-(3-([1,1′-Biphenyl]-4-yloxy)propyl)-3-methylpiperidine Oxalate] | 17 nM | 31 nM | 11.3 | 1.5 nM | –
CC1CCN(CCCOc2ccc(-c3ccccc3)cc2)CC1 [Compound 2, 1-(3-([1,1′-Biphenyl]-4-yloxy)propyl)-4-methylpiperidine Oxalate] | 16 nM | 10.3 nM | 6.7 | 2.4 nM | –
c1ccc(-c2ccc(OCCCN3CCCC3)cc2)cc1 [Compound 4, 1-(3-([1,1′-Biphenyl]-4-yloxy)propyl)pyrrolidine Oxalate] | 65 nM | 19.5 nM | 2.7 | 24 nM | –
N#Cc1ccc(-c2ccc(OCCCN3CCCCC3)cc2)cc1.O=C(O)C(=O)O [Compound 5, 4′-(3-(Piperidin-1-yl)propoxy)-[1,1′-biphenyl]-4-carbonitrile Oxalate] | 47 nM | – | 1.7 | 28 nM | –
c1ccc(Oc2ccc(OCCCN3CCCCC3)cc2)cc1 [Compound 6, 1-(3-(4-Phenoxyphenoxy)propyl)piperidine Oxalate] | 103 nM | 2.7 nM | 5.7 | 18 nM | –
c1ccc(Cc2ccc(OCCCN3CCCCC3)cc2)cc1 [Compound 8, 1-(3-(4-Benzylphenoxy)propyl)piperidine Oxalate] | 47 nM | – | 8.5 | 5.5 nM | –
c1ccc(-c2ccc(OCCCCN3CCCCC3)cc2)cc1 [Compound 9, 1-(4-([1,1′-Biphenyl]-4-yloxy)butyl)piperidine Oxalate] | 33 nM | 22 nM | 0.3 | 95 nM | –
c1ccc(Oc2ccc(OCCCN3CCC(c4ccncc4)CC3)cc2)cc1 [Compound 13, 4-(1-(3-(4-Phenoxyphenoxy)propyl)piperidin-4-yl)pyridine Oxalate] | 4 nM | 24.2 nM | 0.7 | 5.6 nM | –
c1ccc(Nc2ccc(OCCCN3CCC(c4ccncc4)CC3)cc2)cc1 [Compound 14, N-Phenyl-4-(3-(4-(pyridin-4-yl)piperidin-1-yl)propoxy)aniline Oxalate] | 29 nM | 69 nM | 8.8 | 3.3 nM | –
c1ccc(Cc2ccc(OCCCN3CCC(c4ccncc4)CC3)cc2)cc1 [Compound 15, 4-(1-(3-(4-Benzylphenoxy)propyl)piperidin-4-yl)pyridine Oxalate] | 9.9 nM | 76.1 nM | 3.5 | 2.8 nM | –
CC(C)(C)c1ccc(OCCCCN2CCN(c3cnccn3)CC2)cc1 [Compound 16, 2-(4-(4-(4-(tert-Butyl)phenoxy)butyl)piperazin-1-yl)pyrazine Oxalate] | 27 nM | – | 3.6 | 7.6 nM | –
N#Cc1ccc(-c2ccc(OCCCN3CCN(c4ccncc4)CC3)cc2)cc1 [KSK94] | – | – | – | – | pK of equilibrium H2L+2 = H+ + HL+ [1, 8]: 6.25; pK of equilibrium HL+ = H+ + L0 [1, 8]: 6.65; free ligand [L] [1, 9]: 77.72%; monoprotonated form [HL+] [1, 9]: 20.56%; pKa ([1]; read-out: pKa1): 6.25; pKa ([1]; read-out: pKa2): ~1; pKa ([1]; read-out: pKa3): 6.65
Cl.O=C(OCCN1CCOCC1)C1(c2ccccc2)CCCCC1 [PRE-084, 2-[4-morpholinethyl]1-phenylcyclohexanecarboxylate hydrochloride] | – | – | – | – | reversal of potentiation of loperamide-induced antinociception by S1RA and 12 [6]: markedly reverse the effect of these compounds on loperamide-induced antinociception
CN(C)C(=O)C(CCN1CCC(O)(c2ccc(Cl)cc2)CC1)(c1ccccc1)c1ccccc1 [loperamide] | – | – | – | – | effect of loperamide alone on struggle response latency ([6]; 4 mg/kg s.c.): minimal (nonsignificant) increase in the struggle response latency
C=CC[N+]1(C)CC[C@]23c4c5ccc(O)c4O[C@H]2C(=O)CC[C@@]3(O)[C@H]1C5 (stereo partly drawn) [naloxone-methiodide] | – | – | – | – | reversal of potentiation of loperamide-induced antinociception by S1RA and 12 [6]: the effect of S1RA and 12 was also reversed
CCN1CCCC1CNC(=O)c1cc(S(N)(=O)=O)ccc1OC (stereo not drawn) [sulpiride, reference compound] | – | – | – | – | Papp at 5 h, 100 µM [7]: 0.05 ×10⁻⁶ cm/s
